The numbers were not newly measured in publication PMC7682800 (Arteriosclerosis, Thrombosis, and Vascular Biology, 2020), which cites them from elsewhere.

In this series the test system is PAR1. The settings on record: oral administration.

As to `CCOC(=O)N[C@@H]1CC[C@@H]2[C@@H](C1)C[C@H]1C(=O)O[C@H](C)[C@H]1[C@H]2/C=C/c1ccc(-c2cccc(F)c2)cn1` [vorapaxar], the Pharmacodynamic half-life was no less than 4 weeks.
